One assay has as its system S. aureus. Kind of assay: Periprosthetic joint infection model, implant biofilm CFU. It counts as in vivo. The conditions noted are these: mouse, intraperitoneal; SEQ ID NO:1 0.1-10 mg/kg; compared to untreated control mice, FIG. 16. Here is the method: Periprosthetic joint infection was modeled in a mouse by placing an intra-articular K-wire through the medullary canal of the proximal femur followed by intra-articular inoculation with S. aureus. Animals were treated systemically with an intraperitoneal delivery of cefazolin, rifampin, or the exemplary peptide of SEQ ID NO: 1. Intraperitoneal delivery was chosen due to technical difficulties associated with intravenous delivery. Implant sonication and proximal femur homogenate were used to quantify viable bacteria.

In assay [1] the test system is P. aeruginosa strains (PAO1 and 2 clinical isolates). The experiment in a line: Determination of bacterial resistance, passage at 0.5×MIC with daily MIC. The settings on record: three P. aeruginosa strains, exposure at 0.5×MIC, FIG. 20. It is filed as cell-based, Pseudomonas aeruginosa. From the text: Each antibiotic was compared for their propensity to select for bacterial resistance phenotypes in vitro.

The test system of assay [2] is Pseudomonas aeruginosa ATCC BAA-2109 (MDR). It is filed as cell-based. The conditions noted are these: ATCC BAA-2109. The procedure:
(§1) Each peptide was formulated in PBS buffer prior to testing. Peptides of SEQ ID NO:5 and SEQ ID NO:8 were brought up in 100% DMSO with 0.002% polysorbate-80 at 1.28 mg/mL (40× the highest final test concentration of 32 mcg/mL). Final test concentration of DMSO was 2.5% in the assay at the first dilution for those two compounds.
(§2) Mueller Hinton II broth (MHB II; BD; Lot Nos. 6258541 and 7143896) was used for MIC testing of aerobic organisms. 0.002% polysorbate 80 (P80) was added to the test medium.
(§3) MIC values were determined using a broth microdilution procedure described by CLSI (1, 3). Automated liquid handlers (Multidrop 384, Labsystems, Helsinki, Finland; Biomek 2000 and Biomek FX, Beckman Coulter, Fullerton CA) were used to conduct serial dilutions and liquid transfers.
(§4) To prepare the drug mother plates, which would provide the serial peptide dilutions for the replicate daughter plates, the wells of columns 2-12 of standard 96-well microdilution plates (Costar 3795) were filled with 150 μl of the designated diluent for each row of peptide. The test articles and comparator compounds (300 μl at 40× the highest concentration to be tested) were dispensed into the appropriate wells in column 1. The Biomek 2000 was then used to make 2-fold serial dilutions in the mother plates from column 1 through column 11. The wells of Column 12 contained no drug and served as the organism growth control wells for the assay.
(§5) The daughter plates were loaded with 185 μL per well of MHB II using the Multidrop 384. The daughter plates were completed on the Biomek FX instrument which transferred 5 uL of peptide solution from each well of a mother plate to the corresponding well of each daughter plate in a single step. A standardized inoculum of each test organism was prepared per CLSI methods. The inoculum for each organism was dispensed into sterile reservoirs divided by length (Beckman Coulter), and the Biomek 2000 was used to inoculate the plates. Daughter plates were placed on the Biomek 2000 work surface in reverse orientation so that inoculation took place from low to high drug concentration. The plates were then inoculated with 10 μL of the inoculum resulting in a final cell density of approximately 5×10^5 CFU/mL, per well.
(§6) Plates were stacked 3-4 high, covered with a lid on the top plate, placed in plastic bags, and incubated at 35° C. for 16 to 20 hrs. Following incubation, the microplates were removed from the incubator and viewed from the bottom using a plate viewer. […] The MIC was read and recorded as the lowest concentration of peptide that inhibited visible growth of the organism.

Assay [3] concerns Streptococcus pyogenes ATCC 49399. It counts as cell-based. The settings on record: ATCC 49399. The procedure:
as §1, §2, §3, §4, §5, §6

Assay [4] relates to Staphylococcus aureus ATCC 43300 (MRSA). It counts as cell-based. The conditions noted are these: ATCC 43300. The procedure:
as §1, §2, §3, §4, §5, §6

Assay [5] relates to Staphylococcus aureus NRS382 (USA100; HA-MRSA). It is filed as cell-based. The conditions noted are these: USA100. The procedure:
as §1, §2, §3, §4, §5, §6

The test system of assay [6] is Pseudomonas aeruginosa ATCC 27853 (non-MDR; QC). It is filed as cell-based. The settings on record: ATCC 27853. Here is the method: as §1, §2, §3, §4, §5, §6
The test system of assay [7] is Staphylococcus aureus ATCC 29213 (MSSA; QC). It is filed as cell-based. The settings on record: ATCC 29213. The procedure: as §1, §2, §3, §4, §5, §6
Assay [8] has as its system Acinetobacter baumannii ATCC 19606 (non-MDR). It is filed as cell-based. The conditions noted are these: ATCC 19606. Here is the method:
as §1, §2, §3, §4, §5, §6

Assay [9] concerns Enterococcus faecium ATCC 51559 (VRE). It is filed as cell-based. The conditions noted are these: ATCC 51559. The procedure: as §1, §2, §3, §4, §5, §6
For assay [10], the system named is Escherichia coli ATCC BAA-2471 (NDM-1). It counts as cell-based. The settings on record: ATCC BAA-2471. Here is the method: as §1, §2, §3, §4, §5, §6
The subject of assay [11] is Acinetobacter baumannii ATCC BAA-1797 (MDR). It counts as cell-based. The settings on record: ATCC BAA-1797. Here is the method: as §1, §2, §3, §4, §5, §6
Assay [12] deals with Klebsiella pneumoniae ATCC BAA-1705 (KPC). It counts as cell-based. The conditions noted are these: ATCC BAA-1705. Here is the method: as §1, §2, §3, §4, §5, §6
Assay [13] relates to Streptococcus pneumoniae ATCC 49619 (QC). It is filed as cell-based. The conditions noted are these: ATCC 49619. The procedure: as §1, §2, §3, §4, §5, §6
Assay [14] relates to Enterococcus faecalis ATCC 29212 (VSE; QC). It counts as cell-based. The conditions noted are these: ATCC 29212. Here is the method: as §1, §2, §3, §4, §5, §6
The test system of assay [15] is Enterococcus faecalis ATCC 700802 (V583 VRE). It counts as cell-based. The settings on record: ATCC 700802. The procedure: as §1, §2, §3, §4, §5, §6
Assay [16] has as its system Escherichia coli ATCC 25922 (QC). It is filed as cell-based. The settings on record: ATCC 25922. Here is the method: as §1, §2, §3, §4, §5, §6
Assay [17] concerns Escherichia coli ATCC 35218 (ESBL). It counts as cell-based. The settings on record: ATCC 35218. The procedure: as §1, §2, §3, §4, §5, §6
Assay [18] has as its system S. aureus strain SH1000 biofilms. Kind of assay: In vitro biofilm disruption on stainless steel rods. It is filed as cell-based, Staphylococcus aureus. The settings on record: S. aureus SH1000, 10×MIC, up to 24 hours, FIG. 15. From the text: FIG. 15 depicts the effect of administration of SEQ ID NO:1 and cefazolin on biofilm maintenance. […] SEQ ID NO:1 eliminated mature implant biofilms on a model strain of S. aureus, SH1000.

Values after ≈ are worked out from the molar mass of the structure shown. Peptide text beside a SMILES is read from it. Bounds are passed on as bounds.

Regarding `CO[C@H]1/C=C/O[C@@]2(C)Oc3c(C)c(O)c4c(O)c(c(/C=N/N5CCN(C)CC5)c(O)c4c3C2=O)NC(=O)/C(C)=C\C=C\[C@H](C)[C@H](O)[C@@H](C)[C@@H](O)[C@@H](C)[C@H](OC(C)=O)[C@@H]1C` [Rifampin], the “reduction of implant biofilm CFU burden (sonicate culture)” value in the assay with S. aureus is on record as “comparable reduction in biofilms sonicate as compared to SEQ ID NO:1”. In addition, the “time to development of resistance (fold MIC >10)” value in assay [1] was at most 3 days.

One may read the MIC as the lowest concentration found to suppress growth. A high value points to a need for much substance. Consider `CC(C)[C@H](N)C(=O)N[C@H](C(=O)N[C@@H](CCCNC(=N)N)C(=O)N[C@H](C(=O)N[C@H](C(=O)N[C@@H](CCCNC(=N)N)C(=O)N[C@@H](CCCNC(=N)N)C(=O)N[C@H](C(=O)N[C@H](C(=O)N[C@@H](CCCNC(=N)N)C(=O)N[C@H](C(=O)N[C@H](C(=O)N[C@@H](CCCNC(=N)N)C(=O)N[C@@H](CCCNC(=N)N)C(=O)O)C(C)C)C(C)C)C(C)C)C(C)C)C(C)C)C(C)C)C(C)C` [SEQ ID NO: 7] (H-VVRVVRRVVRVVRR-OH; N-terminus and C-terminus assumed), for which the MIC is above 32 µg/mL in assay [2]; 16 µg/mL (≈ 9.15 µM) in [3]; above 32 µg/mL in assay [4]; above 32 µg/mL in assay [5]; above 32 µg/mL in [6]; above 32 µg/mL in [7]. Besides, the minimal inhibitory concentration (MIC) in [8] is above 32 µg/mL; in [9], 16 µg/mL (≈ 9.15 µM); in assay [10], 16 µg/mL (≈ 9.15 µM); in [11] it was above 32 µg/mL; in [12] it was above 32 µg/mL; in [13], above 32 µg/mL. Also, the MIC in assay [14] is above 32 µg/mL; in assay [15], above 32 µg/mL; in assay [16], above 32 µg/mL; in [17] it was 32 µg/mL (≈ 18.3 µM).

Turning to `Cc1nnc(SCC2=C(C(=O)O)N3C(=O)[C@@H](NC(=O)Cn4cnnn4)[C@H]3SC2)s1` [cefazolin], the “reduction of mature biofilm on stainless steel rods” value in assay [18] is recorded as “did not achieve a three-log reduction”. Further, the “reduction of implant biofilm CFU burden (sonicate culture)” value in the assay on S. aureus is given as “one log reduction in viable bacteria”.

As to LL-37 [LL37], the “time to development of resistance (fold MIC >10)” value in [1] is reported as at most 9 days.

(Values after patent US20240115654A1, “INTRAVENOUS ADMINISTRATION OF ENGINEERED ANTIMICROBIAL AMPHIPHILIC PEPTIDES” (priority 2021, published 2024).)
